According to paper PMC6979384, “Characterization of the plant homeodomain (PHD) reader family for their histone tail interactions” (Epigenetics & Chromatin, 2020):

Experiments:
Experiment in all cases: Histone peptide microarray
Type in all cases: binding, human
Settings in all cases: sheet "Array Heatmap"
AIRE (PP) = system: AIRE (PP)
Summary of the method: (§1)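 A peptide microarray holding 293 synthetic histone peptides with individual or combinatorial modifications was probed with each GST-PHD protein at 0.5 μM. Values represent mean intensity (±SD) from four replicates.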

BAZ2B = system: BAZ2B
Summary of the method: as §1

BPTF (PB) = system: BPTF (PB)
Summary of the method: as §1

CHD4 (PPCC) = system: CHD4 (PPCC)
Summary of the method: as §1

CHD5 (PCC) = system: CHD5 (PCC)
Summary of the method: as §1

CHD5 (PPCC) = system: CHD5 (PPCC)
Summary of the method: as §1

DIDO1 = system: DIDO1
Summary of the method: as §1

DPF2 (PPC2W2) = system: DPF2 (PPC2W2)
Summary of the method: as §1

ING1 = system: ING1
Summary of the method: as §1

ING2 = system: ING2
Summary of the method: as §1

ING3 = system: ING3
Summary of the method: as §1

ING4 = system: ING4
Summary of the method: as §1

ING5 = system: ING5
Summary of the method: as §1

KDM4C (TTP) = system: KDM4C (TTP)
Summary of the method: as §1

KDM5A (1) = system: KDM5A (1)
Summary of the method: as §1

KDM5A (3) = system: KDM5A (3)
Summary of the method: as §1

KDM5B (1) = system: KDM5B (1)
Summary of the method: as §1

KDM5B (3) = system: KDM5B (3)
Summary of the method: as §1

KDM7A = system: KDM7A
Summary of the method: as §1

MLL5 = system: MLL5
Summary of the method: as §1

MORC3 (CW) = system: MORC3 (CW)
Summary of the method: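 Readout is array binding signal, reported as the mean and standard deviation over four replicates. Each purified GST-fused PHD domain was incubated at 0.5 μM with a library of 293 modified histone peptides.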

PHF13 = system: PHF13
Summary of the method: as §1

PHF21A = system: PHF21A
Summary of the method: as §1

PHF23 = system: PHF23
Summary of the method: as §1

PHF2 = system: PHF2
Summary of the method: as §1

PHF8 = system: PHF8
Summary of the method: as §1

PHRF1 (RP) = system: PHRF1 (RP)
Summary of the method: as §1

RAG2 = system: RAG2
Summary of the method: as §1

SP140L = system: SP140L
Summary of the method: as §1

TAF3 = system: TAF3
Summary of the method: as §1

TRIM66 (PB) = system: TRIM66 (PB)
Summary of the method: as §1

[1] = GST-tagged reader, histone peptide array, total n = 4

H3K9me2 + K27me1 (1-32): H3 1-20
Array Heatmap signal, AIRE (PP) (AIRE (PP); GST-tagged AIRE (PP), arrays performed twice, total replicate number n = 4): 0.4239 | Array Heatmap signal, BAZ2B (BAZ2B; GST-tagged BAZ2B, arrays performed twice, total replicate number n = 4): 0.4338 | Array Heatmap signal, BPTF (PB) (BPTF (PB); GST-tagged BPTF (PB), arrays performed twice, total replicate number n = 4): 0.3305 | Array Heatmap signal, CHD4 (PPCC) (CHD4 (PPCC); GST-tagged CHD4 (PPCC), arrays performed twice, total replicate number n = 4): 0.5346 | Array Heatmap signal, CHD5 (PCC) (CHD5 (PCC); GST-tagged CHD5 (PCC), arrays performed twice, total replicate number n = 4): 0.7436 | Array Heatmap signal, CHD5 (PPCC) (CHD5 (PPCC); GST-tagged CHD5 (PPCC), arrays performed twice, total replicate number n = 4): 0.5173 | Array Heatmap signal, DIDO1 (DIDO1; GST-tagged DIDO1, arrays performed twice, total replicate number n = 4): 0.7123 | Array Heatmap signal, DPF2 (PPC2W2) (DPF2 (PPC2W2); GST-tagged DPF2 (PPC2W2), arrays performed twice, total replicate number n = 4): 0.7331 | Array Heatmap signal, ING1 (ING1; GST-tagged ING1, arrays performed twice, total replicate number n = 4): 0.5289 | Array Heatmap signal, ING2 (ING2; GST-tagged ING2, arrays performed twice, total replicate number n = 4): 0.6071 | Array Heatmap signal, ING3 (ING3; GST-tagged ING3, arrays performed twice, total replicate number n = 4): 0.4513 | Array Heatmap signal, ING4 (ING4; GST-tagged ING4, arrays performed twice, total replicate number n = 4): 0.4312 | Array Heatmap signal, ING5 (ING5; GST-tagged ING5, arrays performed twice, total replicate number n = 4): 0.3315 | Array Heatmap signal, KDM4C (TTP) (KDM4C (TTP); GST-tagged KDM4C (TTP), arrays performed twice, total replicate number n = 4): 0.4309 | Array Heatmap signal, KDM5A (1) (KDM5A (1); GST-tagged KDM5A (1), arrays performed twice, total replicate number n = 4): 0.4383 | Array Heatmap signal, KDM5A (3) (KDM5A (3); GST-tagged KDM5A (3), arrays performed twice, total replicate number n = 4): 0.5076 | Array Heatmap signal, KDM5B (1) (KDM5B (1); GST-tagged KDM5B (1), arrays performed twice, total replicate number n = 4): 0.6244 | Array Heatmap signal, KDM5B (3) (KDM5B (3); GST-tagged KDM5B (3), arrays performed twice, total replicate number n = 4): 0.4925 | Array Heatmap signal, KDM7A (KDM7A; GST-tagged KDM7A, arrays performed twice, total replicate number n = 4): 0.3071 | Array Heatmap signal, MLL5 (MLL5; GST-tagged MLL5, arrays performed twice, total replicate number n = 4): 0.5528 | Array Heatmap signal, MORC3 (CW) (MORC3 (CW); GST-tagged MORC3 (CW), arrays performed twice, total replicate number n = 4): 0.4746 | Array Heatmap signal, PHF13 (PHF13; GST-tagged PHF13, arrays performed twice, total replicate number n = 4): 0.5951 | Array Heatmap signal, PHF21A (PHF21A; GST-tagged PHF21A, arrays performed twice, total replicate number n = 4): 0.4343 | Array Heatmap signal, PHF23 (PHF23; GST-tagged PHF23, arrays performed twice, total replicate number n = 4): 0.5468 | Array Heatmap signal, PHF2 (PHF2; GST-tagged PHF2, arrays performed twice, total replicate number n = 4): 0.587 | Array Heatmap signal, PHF8 (PHF8; GST-tagged PHF8, arrays performed twice, total replicate number n = 4): 0.3466 | Array Heatmap signal, PHRF1 (RP) (PHRF1 (RP); GST-tagged PHRF1 (RP), arrays performed twice, total replicate number n = 4): 0.767 | Array Heatmap signal, RAG2 (RAG2; GST-tagged RAG2, arrays performed twice, total replicate number n = 4): 0.2412 | Array Heatmap signal, SP140L (SP140L; GST-tagged SP140L, arrays performed twice, total replicate number n = 4): 0.3321 | Array Heatmap signal, TAF3 (TAF3; GST-tagged TAF3, arrays performed twice, total replicate number n = 4): 0.256 | Array Heatmap signal, TRIM66 (PB) (TRIM66 (PB); GST-tagged TRIM66 (PB), arrays performed twice, total replicate number n = 4): 0.6366

H3K9me2 + K27me2: H3 6-30
Array Heatmap signal, AIRE (PP) (AIRE (PP); [1]): 0.5158 | Array Heatmap signal, BAZ2B (BAZ2B; [1]): 0.4949 | Array Heatmap signal, BPTF (PB) (BPTF (PB); [1]): 0.3713 | Array Heatmap signal, CHD4 (PPCC) (CHD4 (PPCC); [1]): 0.615 | Array Heatmap signal, CHD5 (PCC) (CHD5 (PCC); [1]): 0.8305 | Array Heatmap signal, CHD5 (PPCC) (CHD5 (PPCC); [1]): 0.6064 | Array Heatmap signal, DIDO1 (DIDO1; [1]): 0.6649 | Array Heatmap signal, DPF2 (PPC2W2) (DPF2 (PPC2W2); [1]): 0.6273 | Array Heatmap signal, ING1 (ING1; [1]): 0.5223 | Array Heatmap signal, ING2 (ING2; [1]): 0.6067 | Array Heatmap signal, ING3 (ING3; [1]): 0.521 | Array Heatmap signal, ING4 (ING4; [1]): 0.4936 | Array Heatmap signal, ING5 (ING5; [1]): 0.3864 | Array Heatmap signal, KDM4C (TTP) (KDM4C (TTP); [1]): 0.5461 | Array Heatmap signal, KDM5A (1) (KDM5A (1); [1]): 0.5009 | Array Heatmap signal, KDM5A (3) (KDM5A (3); [1]): 0.4645 | Array Heatmap signal, KDM5B (1) (KDM5B (1); [1]): 0.6708 | Array Heatmap signal, KDM5B (3) (KDM5B (3); [1]): 0.4954 | Array Heatmap signal, KDM7A (KDM7A; [1]): 0.3867 | Array Heatmap signal, MLL5 (MLL5; [1]): 0.5274 | Array Heatmap signal, MORC3 (CW) (MORC3 (CW); [1]): 0.385 | Array Heatmap signal, PHF13 (PHF13; [1]): 0.655 | Array Heatmap signal, PHF21A (PHF21A; [1]): 0.4962 | Array Heatmap signal, PHF23 (PHF23; [1]): 0.5491 | Array Heatmap signal, PHF2 (PHF2; [1]): 0.4856 | Array Heatmap signal, PHF8 (PHF8; [1]): 0.3721 | Array Heatmap signal, PHRF1 (RP) (PHRF1 (RP); [1]): 0.4454 | Array Heatmap signal, RAG2 (RAG2; [1]): 0.2639 | Array Heatmap signal, SP140L (SP140L; [1]): 0.3642 | Array Heatmap signal, TAF3 (TAF3; [1]): 0.2757 | Array Heatmap signal, TRIM66 (PB) (TRIM66 (PB); [1]): 0.6036
